The subject of data set [1] is Leishmania donovani. The data set is described as follows: Antileishmanial activity against Leishmania donovani promastigotes MHOM/SD/62/1S assessed as inhibition of cell growth measured after 48 hrs by resazurin dye based assay. Type of data set: functional, organism-based. (In general: Alamar Blue is a resazurin reagent that responds to reducing activity.)
In data set [2] the test system is Leishmania donovani. In words: Antileishmanial activity against Leishmania donovani amastigotes MHOM/SD/62/1S assessed as inhibition of cell growth measured after 48 hrs by resazurin dye based assay. Type of data set: functional, organism-based.
Data set [3] relates to Leishmania donovani. In words: Antileishmanial activity against Leishmania donovani 9515 amastigotes assessed as inhibition of parasite growth incubated for 48 hrs by resazurin dye based assay. The data set is classed as functional, organism-based. The note with it: Leishmania donovani, 9515, 48 h.
The nature of data set [4]: Cytotoxicity against African green monkey Vero cells assessed as reduction in cell viability by MTT assay. The data set is classed as toxicity, cell-based, Chlorocebus sabaeus. For orientation: Formazan colour is commonly taken as a measure of viable cells.
In a further data set the test system is Leishmania tropica. The data set is described as follows: Antileishmanial activity against Leishmania tropica MHOM/A7/1974/SAF-K27 assessed as reduction in parasite growth incubated for 48 hrs by Neubauer hemocytometer analysis. Type of data set: functional, organism-based. The note with it: MHOM/A7/1974/SAF-K27, 48 h.
Data set [5] relates to Leishmania donovani. In words: Antileishmanial activity against Leishmania donovani MHOM/IN/95/9515 assessed as reduction in parasite growth measured for 72 hrs by resazurin dye based analysis. The note with it: MHOM/IN/95/9515, 72 h. Type of data set: functional, organism-based.
The test system of data set [6] is Leishmania major. The data set is described as follows: Antileishmanial activity against Leishmania major MHOM/IR/-173 assessed as reduction in parasite viability measured for 48 hrs by alamar-blue dye based analysis. Type of data set: functional, organism-based. The note with it: MHOM/IR/-173, 48 h.
A short description of data set [7]: Selectivity index, ratio of CC50 for cytotoxicity against HEK293 cells to IC50 for antileishmanial activity against Leishmania major IR-173 promastigotes. Type of data set: toxicity, cell-based. The note with it: human, read-out: Ratio CC50/IC50.
The test system of data set [8] is Leishmania donovani. In words: Antileishmanial activity against Leishmania donovani promastigotes assessed as inhibition of parasite growth. The data set is classed as functional, organism-based.
The test system of data set [9] is Leishmania donovani. The data set is described as follows: Antileishmanial activity against Leishmania donovani amastigotes assessed as inhibition of parasite growth. The data set is classed as functional, organism-based.
The test system of data set [10] is Leishmania amazonensis. The data set is described as follows: Antileishmanial activity against Leishmania amazonensis MHOM/BR/1989/166MJO promastigotes infected in mouse peritoneal macrophage assessed as inhibition of parasite growth measured for 24 hrs by MTT assay. Type of data set: functional, organism-based. The note with it: Peritoneal macrophage cell.
Data set [11] deals with Leishmania infantum. In words: Antileishmanial activity against Leishmania infantum LEM 3049 isolate promastigote assessed as reduction in parasite growth after 72 hrs by MTT assay. Type of data set: functional, organism-based. The note with it: LEM 3049, 72 h.
Data set [12] relates to Leishmania major. The data set is described as follows: Antileishmanial activity against Leishmania major promastigotes assessed as reduction in parasite growth incubated for 48 hrs by MTT assay. The data set is classed as functional, organism-based.
Data set [13] relates to Leishmania infantum. In words: Antileishmanial activity against Leishmania infantum promastigote after 72 hrs by MTT assay. The data set is classed as functional, organism-based.
Data set [14] can be described thus: Cytotoxicity against mouse RAW264.7 cells assessed as reduction in cell viability measured after 48 hrs by MTT assay. Type of data set: toxicity, cell-based.
The test system of data set [15] is Leishmania amazonensis. In words: Antileishmanial activity against Leishmania amazonensis promastigotes assessed as reduction in parasite viability incubated for 48 hrs by MTT assay. Type of data set: functional, organism-based.
Data set [16] relates to Leishmania infantum. In words: Antileishmanial activity against Leishmania infantum amastigotes infected in human THP-1 cells assessed as reduction in parasite growth. Type of data set: functional, organism-based.
The nature of data set [17]: Cytotoxicity against human WI-38 cells assessed as reduction in cell viability incubated for 48 hrs by MTT assay. Type of data set: toxicity, cell-based.
Data set [18] concerns Leishmania infantum. The data set is described as follows: Antileishmanial activity against Leishmania infantum MHOM/FR/2008/LEM5700 infected in BALB/c mouse assessed as reduction of parasite burden in liver at 10 mg/kg, po administered for 5 days relative to control. The data set is classed as functional. More on the design: scale not given: the % may be the effect or the level left. The note with it: time 5 day.

In data set [19] the test system is Leishmania donovani. In words: Antileishmanial activity against Leishmania donovani MHOM/SD/62/1S amastigotes assessed as reduction in cell growth. The data set is classed as functional, organism-based.
Data set [20] concerns Leishmania major. The data set is described as follows: Antileishmanial activity against Leishmania major MHOM/IN/95/9515 amastigotes assessed as reduction in cell growth. Type of data set: functional, organism-based.
The nature of data set [21]: Cytotoxicity against mouse J774.A1 cells assessed as reduction in cell viability by MTT assay. The data set is classed as toxicity, cell-based.
Data set [22] relates to Leishmania amazonensis. The data set is described as follows: Antileishmanial activity against Leishmania amazonensis promastigotes assessed as reduction in parasite viability after 72 hrs by CCK-8 assay. The data set is classed as functional, organism-based.
Another data set relates to Leishmania braziliensis. In words: Antileishmanial activity against Leishmania braziliensis promastigotes assessed as reduction in parasite viability after 72 hrs by CCK-8 assay. Type of data set: functional, organism-based.
Data set [23] relates to Leishmania infantum. In words: Antileishmanial activity against Leishmania infantum promastigote assessed as inhibition of parasite growth after 72 hrs by MTT assay. The data set is classed as functional, organism-based.
In data set [24] the test system is Leishmania infantum. The data set is described as follows: Antileishmanial activity against Leishmanial infantum amastigotes assessed as inhibition of parasite growth measured after 72 hrs by MTT assay. Type of data set: functional, organism-based.
For another data set, the system named is HepG2. The data set is described as follows: Cytotoxicity against human HepG2 cells assessed as growth inhibition of cells measured for 48 hrs by MTT assay. Type of data set: functional, cell-based. The note with it: HepG2, 48 h.
In data set [25] the test system is Leishmania infantum. The data set is described as follows: Antileishmanial activity against Leishmania infantum MHOM/BR/1972/LD intracellular amastigotes infected in mouse J774A.1 macrophages cells assessed as reduction in parasite viability after 72 hrs by MTT based analysis. The data set is classed as functional, organism-based. The note with it: J774.A1, 72 h.

A short description of data set [26]: Cytotoxicity against mouse Peritoneal macrophages assessed as reduction in cell viability incubated for 24 hrs by MTT assay. The data set is classed as toxicity, cell-based, Peritoneal macrophage.
Data set [27] has as its system Leishmania infantum. The data set is described as follows: Antileishmanial activity against Leishmania infantum promastigotes infected in BALB/c mouse macrophages assessed as reduction in parasite load in spleen at 7.7 mg/kg, po administered twice as day for 5 days relative to control. Type of data set: functional. Details: scale not given: the % may be the effect or the level left. The note with it: time 5 day.

Data set [28] concerns Leishmania infantum. The data set is described as follows: Antileishmanial activity against Leishmania infantum promastigotes infected in BALB/c mouse macrophages assessed as reduction in parasite load in liver at 7.7 mg/kg, po administered twice as day for 5 days relative to control. The note with it: time 5 day. More on the design: scale not given: the % may be the effect or the level left. The data set is classed as functional.

Usually IC50 stands for the concentration at which inhibition is half-maximal. Consider `O=C(N/N=C\c1ccc([N+](=O)[O-])o1)c1ccc(OS(=O)(=O)c2cccnc2)cc1`, for which the IC50 in the data set with Leishmania donovani [1] was determined as 0.09 µM; in the data set on Leishmania donovani [2], 0.09 µM; in the data set on Leishmania donovani [3], 0.09 µM; in [4] it was 3.26 µM; in the data set on Leishmania tropica, 0.04 µM.

With `Cc1ccc(Cn2cc(COC3=CC(=O)c4ccccc4C3=O)nn2)cc1`, the half-maximal inhibitory concentration (IC50) with Leishmania donovani [5] turned out to be 0.81 µM; in the data set on Leishmania major [6], 1.48 µM. Further, the selectivity ratio in [7] is above 55.

On to `Cc1cc(O)c(C(=O)Nc2ccccc2)c(=O)n1Cc1ccc(F)cc1`, for which the IC50 in the data set on Leishmania donovani [8] came to 55 µM; in the data set with Leishmania donovani [9], 55.8 µM.

On to `COc1cc(C(=O)/C=C/c2ccc([N+](=O)[O-])cc2)c(C(C)=O)c2c(OC)cccc12`, for which the IC50 in the data set with Leishmania amazonensis [10] was found to be 18.5 µM.

Regarding `O=C(N/N=C1\C(=O)N(CC(O)COc2cc(=O)oc3ccccc23)c2ccccc21)c1ccncc1` (stereo unspecified), the IC50 in the data set on Leishmania infantum [11] was found to be 0.03 µM.

Consider `COc1ccc(C(=O)NC(=S)Nc2nc(-c3ccccc3)c(C)s2)cc1`, for which the IC50 with Leishmania major [12] is 84.8 µM.

The CC50 is the concentration at which the toxic effect on the cells reaches its halfway point. For `O=C(/C=C/c1ccc(F)cc1)c1ccccc1Cl`, 74.1 µM corresponded to half-maximal inhibition in the data set on Leishmania infantum [13] (IC50). Moreover, the CC50 at 48 h in [14] worked out at 479 µM.

`O=C(CCc1ccc(O)c(O)c1)O[C@H](Cc1ccc(O)cc1)C(=O)O`: the IC50 with Leishmania amazonensis [15] stood at 19 µM.

For `COc1ccc(Br)cc1CN(C)C12CC3CC(CC(C3)C1)C2`, in the data set on Leishmania infantum [16], the IC50 is 0.32 µM. Also, the CC50 at 48 h in [17] came to 63.7 µM. In the data set on Leishmania infantum [18], the Activity was found to be 59%.

On to `Cc1ccc2c(NCCCN(C)C(=O)c3cccc(/C=C/C(=O)c4ccc(C)o4)c3)ccnc2c1`, for which the IC50 in the data set on Leishmania donovani [19] is 1.08 µM; in the data set with Leishmania major [20], 1.14 µM.

As for `NC(=S)N/N=C(/C=C/c1cccnc1)c1cccc(NC(=O)Nc2ccc(Cl)cc2)c1`, the IC50 in data set [21] is 3.81 µM.

What is called EC50 is the concentration giving half of the maximal effect. Turning to `COc1cc(OC)c(C(=O)/C=C/c2cccc(C)c2)c([N+](=O)[O-])c1`, the EC50 in the data set with Leishmania amazonensis [22] is 0.42 µM; with Leishmania braziliensis, 1.45 µM.

Regarding `O=C(CCCc1cc2ccccc2[nH]1)Nc1nc2ccccc2c2ccccc12`, the EC50 with Leishmania infantum [23] is 8.53 µM; in the data set with Leishmania infantum [24], 8.9 µM. Moreover, the IC50 in the data set on HepG2 is 0.01 µM.

Consider `NC(=O)N/N=C/c1ccc(Oc2no[n+]([O-])c2-c2ccccc2)cc1`, for which, in the data set with Leishmania infantum [25], the EC50 was 3.6 µM. Further, the CC50 at 24 h in data set [26] was determined as 500 µM. The Activity in the data set with Leishmania infantum [27] and in the data set with Leishmania infantum [28] was 90% throughout.

The values are drawn from ChEMBL document CHEMBL5528001, “Synthetic product-based approach toward potential antileishmanial drug development” (Eur J Med Chem, 2024).
